From patent publication US5399743A, “Dipeptide derivative and prophylactic or therapeutic agent for bone diseases containing same as active ingredient” (Suntory Limited, priority 1992, dated 1995)
“Also recorded” adds a separate entry of the source.

Key:
[1] = system: Rat Hypercalcemia Induced by PTHrp(1-34); test: Rat hypercalcemia induced by PTHrp(1-34), oral administration; assay type: in vivo, Wistar rats
Description: (§1) The active ingredient of the present invention normalizes the blood calcium concentration in rat hypercalcemia induced by PTHrp(1-34). PTHrp (parathyroid hormone-related protein) is a protein identified as the factor inducing hypercalcemia in humans. The fragment comprised of the 1 to 34th amino acid residues, that is, PTHrp(1-34), is the active type. The PTHrp(1-34) promotes bone resorption in vitro and induces hypercalcemia if administered to rats.
(§2) Using this model, the compound of the present invention was administered to Wistar rats, then PTHrp(1-34) was administered and the blood calcium concentration was measured after one hour after administration. […] That is, the compound of the present invention suppresses hypercalcemia induced by PTHrp(1-34), so is useful as a prophylactic or therapeutic agent for bone diseases.
(§3) To Wistar rats (5 weeks old, male, 90 to 110 g, 5 animals in each group), 40 mg/kg body weight of the compounds listed in Table 1 were administered orally. Four hours later, 5 nmole/kg of PTHrp(1-34) was intravenously injected. One hour after the administration of PTHrp(1-34), a blood sample was collected from each animal and the blood calcium concentration was measured by the octocresolphthalein complexone method.
Note that for reference, a similar evaluation was made of L-trans-epoxysuccinyl-L-leucineamide (e-guanide)-butane (E-64) Japanese Unexamined Patent Publication (Kokai) No. 63-284127 and the Z-Phe-Ala-CH2 F described in Japanese Examined Patent Publication (Kokoku) No. 4-1737.

rats = test: Acute toxicity LD50 after oral administration to rats; assay type: in vivo; conditions: in 20 hours
Description: The compound of the present invention is a low molecular weight dipeptide derivative, so the toxicity is low. For example, the acute toxicity LD50 of the compound 1 shown in Table 1 in 20 hours after oral administration to rats is over 1 g/kg.

[2] = system: Rat Hypercalcemia Induced by PTHrp(1-34); test: Rat hypercalcemia induced by PTHrp(1-34), subcutaneous administration; assay type: in vivo, Wistar rats; conditions: 40 mg/kg subcutaneously at the back; 2 h later PTHrp(1-34) 5 nmole/kg i.v.; blood 1 h after PTHrp; n = 5; PTHrp-only group 11.28 ± 0.08, untreated 10.68 ± 0.09
Description: as §1, §2
as §3, with “In the same way as Example 7, to” for “To”, “subcutaneously at the back. Two” for “orally. Four”

[3] = 40 mg/kg orally; 4 h later PTHrp(1-34) 5 nmole/kg i.v.; blood 1 h after PTHrp; n = 5; PTHrp-only group 11.87 ± 0.14, untreated 11.42 ± 0.14

Row | Structure (SMILES) | Ca conc. ± standard error (average blood calcium concentration) [1, 3] [mg/dL] | acute toxicity LD50 (rats) | Ca conc. ± standard error (average blood calcium concentration) [2] [mg/dL] | effect on rise in blood calcium concentration (in words) ([1]; oral administration, 40 mg/kg, vs group treated with PTHrp(1-34) only) | effect on rise in blood calcium concentration (in words) ([1]; oral administration, 40 mg/kg, vs group treated with PTHrp(1-34) only; 40 mg/kg)
1 | CCCCC(NC(=O)C(CC(C)C)NC(=O)OCc1ccccc1)C(=O)CF (stereo not drawn) [Z-Leu-Nle-CH2 F, 3-(N-benzyloxycarbonyl-leucylamide)-1-fluoro-2-heptanone] | 11.09 ± 0.14 | over 1 g/kg |  |  | 
2 | CC(C)C[C@H](NC(=O)[C@H]1O[C@@H]1C(=O)O)C(=O)NCCCCN=C(N)N (relative stereo) [Example E-64, L-trans-epoxysuccinyl-L-leucineamide (e-guanide)-butane] | 11.09 ± 0.14 |  | 10.20 ± 0.09 | significantly suppressed the rise in the blood calcium concentration | 
3 | CCCCC(NC(=O)C(CC(C)C)NC(C)=O)C(=O)CF (stereo not drawn) [Ac-Leu-Nle-CH2 F, 3-(N-acetyl-leucylamide)-1-fluoro-2-heptanone] | 10.49 ± 0.09 |  | 10.13 ± 0.11 |  | 
4 | CC(NC(=O)C(Cc1ccccc1)NC(=O)OCc1ccccc1)C(=O)CF (stereo not drawn) [Z-Phe-Ala-CH2 F, 3-(N-benzyloxycarbonylphenylalanylamide)-1-fluoro-2-butanone] | 12.02 ± 0.20 |  |  |  | did not exhibit an activity; also recorded: did not exhibit any action of normalizing the calcium concentration
